Reference: patent US10588972B2, “Phthalocyanine probes and uses thereof” (LI-COR, INC., priority 2014, dated 2020)
Values joined by “and” are separate entries in the source; they are usually repeats but may differ in a detail not shown here. Identical values can stand only once. Like-named read-outs stand apart in the source and are kept apart here.

What was measured:
A431 cells [1] = assay: Cytotoxicity and localization of antibody probe versus small protein ligand probe after irradiation (Example 4); format: cell-based
Description: Both probes can bind EGFR and had approximately 2 dye molecule per conjugate molecule. It was assumed that the affinity for the receptor will be different for the antibody (generally pM), compared to the small protein (nM). Although the probe doses were different, the incubation times were the same at only 10 min. After incubation, the probes were rinsed from the cells. FIGS. 7A and 7B illustrates A431 cells that were incubated with IRDye 700DX-panitumumab or IRDye 700DX-EGF, respectively and thereafter irradiated.
Thus, upon irradiation, the production of singlet oxygen occurred at the cell surface. Typically, the EGF ligand is internalized after binding the EGF receptor.

A431 cells [2] = assay: Unlabeled versus IRDye 700DX-labeled panitumumab with and without irradiation (Example 5); format: cell-based; conditions: 10 minutes incubation
Description: Although the assumption is that the doses used in the assay described herein are too low to be a contributing factor in the cell death seen with IRDye® 700DX-labeled panitumumab, a small study was conducted to confirm that no therapeutic effect is due to the assay system. The test included the following four treatments: treatment 1 of unlabeled panitumumab and no irradiation (FIG. 11A), treatment 2 of IRDye® 700DX-labeled panitumumab and no irradiation (FIG. 11B), treatment 3 of unlabeled panitumumab and irradiation (FIG. 11C), and treatment 4 of IRDye® 700DX-labeled panitumumab and irradiation (FIG. 11D). The irradiation dose was 24 J/cm^2 with the probe incubation of 10 minutes and a concentration of 0.1 μM.

A431 cells [3] = format: cell-based; conditions: 32 J/cm^2
Description: A different LED source was tested and evaluated to determine if a second source of LED would yield a similar effect as the standard LED used. A straight forward evaluation was set up with four treatments (treatments A-D). The tests were performed in triplicate in order to examine reproducibility. The test included the following four treatments: treatment A of no probe and irradiation, treatment B of IRdye® 700DX-labeled EGF and no irradiation, treatment C of IRDye® 700DX-labeled EGF and irradiation, and treatment D of IRDye® 700DX-labeled panitumumab and irradiation. The probe dose was about 0.1 μM labeled panitumumab and 0.5 μM 700DX-labeled EGF. Irradiation was for 10 minutes at an irradiation dose of 32 J/cm^2.
Significant and similar effects for both probes together and in triplicate thus providing clear evidence that IRDye® 700DX-labeled small protein can kill cells similarly to an IRDye 700DX-labeled antibody. Conditions for use of either probe may be unique to the individual probe. […] The fluorescent scale of the 700 nm images was the same for both treated sets of cells (FIGS. 12C-12D). Although the exact concentration of the antibody probe is not known, the signals from the different probes appear similar in level and intensity.

A431 cells [4] = assay: VB-48 assay: vitality, viability and necrosis of treatments 1-10 (Table 3); format: cell-based
Description: Briefly, A431 cells were labeled with respective probes for specific treatments (listed below); cells were rinsed and evaluated for labeling. The test include the following treatments: […], treatments 3-4 of EGF-IRDye® 700DX at 0.5 μM and radiation, treatments 5-6 of IRDye® 700DX NHSe at 5 μM and radiation, treatments 7-8 of panitumumab-IRDye® 700DX at about 0.1 μM and radiation, treatment 9 of a negative control with no probe and no irradiation, and treatment 10 of RGD-IRDye® 700DX and no irradiation. The probes were incubated for about 10 minutes and with a longer period of about 20 minutes for the RGD probe. The cells were monitored with microscopy and morphology was examination 24 hours post treatment.
Low binding was expected for the RGD probe due to the low level of integrin receptors on A431 cells. […] By 3 hours post-irradiation all treatments except RGD (Treatment 1) show significant cytotoxicity. Vitality, viability and necrosis assays such as a VB-48 assay and JC-1 assay were performed.

[5] = test system: serum proteins including albumin (human serum albumin, bovine serum albumin, 5% FBS); assay: Binding of dye to serum proteins, incubation in 1×PBS and 4-12% Bis-Tris gel
Description: In SDS-PAGE and under non-reducing conditions, ovalbumin has a molecular weight of about 40 kDa, 45 kDa, 63 kDa and 72 kDa. Human serum albumin (HSA) has a molecular with ranging from about 66.6 kDa to about 66.4 kDa or lower under non-reducing conditions. HSA can migrate as an approximately 58-67 kDa band in SDS-PAGE under reducing conditions.
Human serum albumin, bovine serum albumin, 5% FBS and IRDye® 700DX carboxylate were incubated in 1×PBS for 2.5 h at room temperature. Methylene blue was also used as a dye known to bind to albumin and the other serum proteins. The samples were run on a 4-12% Bis-Tris gel. Ovalbumin served as the negative control. The proteins incubated with IRDye® 700DX carboxylate are on the left of the gel and methylene blue samples are on the right (FIG. 4A-B).

[6] = Production of singlet oxygen, Singlet Oxygen Green Sensor, steady state fluorometer; conditions: for singlet oxygen sensor fluorescence with scavenger sodium azide added: 32 J/cm^2
Description: Dyes and conjugated probes (IRDye 700DX carboxylate (700DX), EGF, RGD, and IgG conjugates) were evaluated for production of singlet oxygen using Singlet Oxygen Green Sensor (Life Technologies) and measured by a steady state fluorometer (ex 504 nm/em 525 nm). Controls (water or DMEM medium) and a positive control of methylene blue (MB) were included.
Measurements were made every second for 30 sec and averaged. Solution makeup: SOGS (1 μM), dye or probe addition (10 μM), Tris pH 7.5 ([…]) and deuterium oxide (50%). Light exposure=32 J/cm^2.

[7] = Stability of IRDye 700DX carboxylate (signal intensity) in PBS and in buffers of pH 2.1-8.2; format: physicochemical; conditions: 37° C.
Description: Evaluation of the effect of pH on the stability of the carboxylate form of the dye was performed at room temperature and at 37° C. For comparison purposes a test of the stability at 37° C. while dissolved in 1×PBS was included. Mcllaine's buffer solution with constant ionic strength was used. […] When the dye was dissolved in various buffers with increasing pH (2.1-8.2) a loss in signal intensity initially occurred between pH 4 and 5 with losses progressively increasing down to pH 2.1 at room temperature (FIG. 3A). At 37° C. this loss initially occurred at a slightly higher pH between pH 5-6 with a progression similar to the tests done at room temperature (FIG. 3B).

[8] = Clearance and biodistribution of IRDye 700DX carboxylate by fluorescence imaging; format: in vivo, nude mice
Description: Experiments were performed to evaluate the clearance of IRDye® 700DX carboxylate in nude mice receiving 2 or 4 nmoles of the compound. This is the non-reactive form of the dye and the in vivo elimination kinetics can be used to determine the biodistribution of the dye and a subsequent dye-labeled conjugate. The results for both doses were very similar (only 4 nmole animal images are presented). Clearance appeared to be renal as noted in the dorsal (FIG. 8A) and ventral whole body views (FIG. 9A). The kidneys are visible throughout the dorsal series (FIG. 8A) and liver negligible in ventral series (FIG. 9A). […] A closer examination of the organs after excision is illustrated in FIG. 10B (2 nmole dose). […] All organs imaged (muscle, heart, lungs, liver, brain, spleen, intestine, and kidneys) were analyzed for signal corrected for area.

[9] = irradiation 24 J/cm^2, 0.1 μM, 24 hours post-treatment
[10] = no irradiation, 0.1 μM, 24 hours
[11] = irradiated (I) 10 minutes, 700DX-EGF 0.5 μM, 700DX-Pan about 0.1 μM
[12] = irradiated (I) 32 J/cm^2, RGD 0.5 μM, EGF 0.5 μM, NHSe 5 μM, Pan ~0.1 μM
[13] = 2.5 h incubation, room temperature

With 700DX-Pan [reference compound] the dead irradiated cells (A431 cells [1]; 10 min incubation, panitumumab probe about 0.1 μM, EGF probe 0.5 μM, 24 hours post irradiation) was 62%, the “necrotic cells after irradiation” value (A431 cells [1]; irradiation 24 J/cm^2 (figure legend)) was 62% and the “induction of cell death (morphology)” value (A431 cells [2]; [9]) was “effectively induced cell death”. The “induction of cell death (morphology)” value (A431 cells [2]; [10]) was “No measurable effect”, the “effect on cells (morphology)” value (A431 cells [3]; irradiated 10 minutes) was “severely affected by the irradiating energy and were dying” and the Cells/mL (A431 cells [3]; [11]) was 2.8 × 10^5 Cells/mL and 4.2 × 10^5 Cells/mL and 2.3 × 10^5 Cells/mL. For the same compound, the VB-48 % necrotic (A431 cells [3]; [11]) was 67% and 87%, the “% Healthy” value (A431 cells [4]; [12]) was 15.0% and the “% Necrotic” value (A431 cells [4]; [12]) was 70%. For the same compound, the Cells/mL (A431 cells [4]; [12]) was 1.2 × 10^5 Cells/mL, the “Est % Viability” value (A431 cells [4]; [12]) was 30-40% and the “Low % Vitality” value (A431 cells [4]; [12]) was 15%. For the same compound, the cytotoxicity by microscopy (A431 cells [4]; irradiated, up to 3 hours post-irradiation) was “most effective”.
For CN(C)c1ccc2nc3ccc(=[N+](C)C)cc-3sc2c1 [methylene blue], the “binding to the serum proteins including albumin” value (“binding” for short) [5, 13] was “Signal is present”, the “increase of singlet oxygen sensor fluorescence” value ([6]; dye or probe 10 μM, SOGS 1 μM, light exposure 32 J/cm^2 (690 nm)) was “Three- to four-fold” and the “singlet oxygen sensor fluorescence with scavenger sodium azide added” value [6] was “reduction in fluorescence”.
In the case of “silicate(5-), bis[N— [3-[(hydroxy-.kappa.O)dimethylsilyl]propyl]-3-sulfo-N,N-bis(3-sulfopropyl)-1-propanaminiumato(4-)][6-[[[3-[(29H,31H-phthalocyanin-yl-.kappa.N29, .kappa.N30, .kappa.N31, .kappa.N32)oxy]propoxy]carbonyl]amino]hexanoato(3-)]-, sodium (1:5) [IRDye® 700DX carboxylate]”, the “loss of signal intensity (stability)” value ([7]; 1×PBS, 1 μM) is reported as “very little loss of signal intensity”, the “pH at which a loss in signal intensity initially occurred” value ([7]; buffers of increasing pH) is reported as 5-6 pH and the “binding” value ([5]; 1 h post-incubation) is reported as “not detected”. The “binding” value [5, 13] was “evident”, the “primary location of the dye in the kidney (longitudinal slice)” value ([8]; 4 nmole dose) was “proximal tubules of the renal cortex” and the “signal in organs other than the liver and kidney” value ([8]; 24 hours after injection) was “little to no signal”. For the same compound, the “retention in the liver” value ([8]; nude mice, 2 or 4 nmoles) was “no significant retention in the liver”, the route of clearance ([8]; nude mice, 2 or 4 nmoles, 5 minutes to 24 hours) was “renal” and the “singlet oxygen sensor fluorescence with scavenger sodium azide added” value [6] was “reduction in fluorescence”.
With “unlabeled panitumumab: unlabeled antibody that binds EGFR” the “induction of cell death (morphology)” value (A431 cells [2]; [9]) was “No measurable effect” and the “induction of cell death (morphology)” value (A431 cells [2]; [10]) was “No measurable effect”.
